Assay results taken from patent US10058633B2, “Biodegradable scaffolds” (Board of Regents of the University of Texas System, priority 2010, dated 2018).

Test system: Human umbilical vein endothelial cells (HUVEC)
Experiment: Cellular uptake of FITC-BSA released from PLGA/pSi microspheres (transwell, confocal)
Format: cell-based
Conditions: 7 days
Description: 40,000 HUVEC were seeded and cultured on a glass coverslip in a 12 well plate with 500 million PLGA/pSi microspheres loaded with FITC-BSA in a transwell on top of the cells. The media were changed every 3 days. Cellular uptake of FITC-BSA released from the PLGA/pSi microspheres was observed by confocal microscopy staining cells with fluorescent phalloidin (actin filaments) and DRAQ5 (nuclei) after fixation (10% formaldehyde).
Detection of the FITC-BSA loaded pSi particles was based on autofluorescence using 488 excitation laser and the cells were analyzed by using 561 and 632 excitation laser for pholloidin and DRAQ5 respectively. Images were acquired using a Leica MD 6000 upright confocal microscope equipped with a 63× oil immersion objective.

BSA in solution: control group: bovine serum albumin in solution
BSA accumulation in cells: did not show any BSA accommulation in cells
